Measured values taken from patent publication US7803557B2, “Methods for identification of eicosapentaenoic acid analogs using anti-inflammatory receptors” (The Brigham and Women's Hospital, Inc., priority 2003, dated 2010).
Read-outs that look alike come from different tables or passages of the source.

Key:
[1] = target: recombinant LTB4 receptor BLT 1 (Homo sapiens, UniProt Q15722); conditions: higher concentrations; reference (7); cited from earlier work
[2] = system: leukocyte infiltration in zymosan-induced peritonitis; assay: Zymosan induced peritonitis (leukocyte infiltration); assay type: in vivo, mouse; conditions: for inhibition of leukocyte recruitment: 100 ng/mouse intravenously, 2 h
Experimental: For peritonitis, 100 ng/mouse of Resolvin E1 or related structures was injected into tail vein and followed by 1 ml zymosan A (1 mg/ml) into the peritoneum. Peritoneal lavages were collected at 2 h and cells were enumerated.
18R-HEPE (100 ng), Resolvin E1 (100 ng), or Indomethacin (100 ng) was injected intravenously into mouse tails followed by zymosan A into the peritoneum. Mice were sacrificed, and peritoneal lavages were collected (2 h) and cells enumerated (n=3).

[3] = LC-MS/MS analysis of Resolvin E1 in human plasma; assay type: in vivo; conditions: oral, healthy human volunteers given EPA and aspirin, 6 donors
Experimental: Human plasma samples were collected at 4 hours after oral administration of fish oil supplement (Fish Oil Concentrate, Walgreens) containing EPA (1 g) and DHA (0.7 g) followed by aspirin (160 mg) at 3 h in six healthy volunteers. Plasma samples were extracted by C18 solid phase extraction with d4-LTB4 (Cascade) as internal standard for LC-MS/MS analysis (7) using a Finnigan LCQ liquid chlomatography ion trap tandem mass spectrometer equipped with a LUNA C18-2 (100×2 mm×[…]) column and UV diode array detector using mobile phase (methanol:water:acetate at 65:35:0.01) from 0 to 8 min, ramped to methanol 8 to 30 min, with a 0.2 ml/min flow rate.

[4] = system: human peripheral blood monocytes; assay: Calcium mobilization in human peripheral blood monocytes; assay type: cell-based
[5] = system: HEK293-Reso ER1 cells; assay: MAP kinase (ERK) activation in HEK293-Reso ER1 cells; assay type: cell-based, human
Experimental: (§1) MAP kinase activation in monocytes and HEK293 cells after treatment with 100 nM of each compound was determined. After incubations, cells were lysed in cold lysis buffer (50 mM Tris-HCl, pH 8.0, 150 mM NaCl, 0.5 mM EDTA, 1.0% NP-40, 0.5% sodium deoxycolate, 10 mM NaF, 10 mM sodium pyrophosphate) containing protease inhibitor cocktail (Sigma). […] of protein was separated on SDS-PAGE and immunoblot was performed using anti-phospho-p44/42 MAP kinase (Cell Signaling) and anti-ERK (Santa Cruz) antibodies. For PTX treatment, HEK-Reso ER1 cells were incubated with or without PTX (200 ng/ml) for 24 h at 37° C. and ERK activation was monitored by addition of Resolvin E1 (100 nM) for 5 min.
(§2) FIG. 4d illustrate effects of PTX on Resolvin E1 induced activation and NF-kB inhibition. In—(a) HEK-hReso ER1 cells were incubated with or without PTX (200 ng/ml) for 24 h at 37 C and ERK activation was monitored by addition of Resolvin E1 (100 nM) for 5 min. In (b) HEK293 cells were transiently transfected with pcDNA-hReso ER1, pNF-kB-luciferase and pRL-TK. After 24 h with or without PTX (200 ng/ml), cells were exposed to Resolvin E1 (50 nM) for 30 min, stimulated with TNF-a (1.0 ng/ml) for 5 h, and luciferase activity was measured.

[6] = system: peripheral blood monocytes; assay: MAP kinase (ERK) activation in peripheral blood monocytes; assay type: cell-based, human; conditions: 100 nM
Experimental: as §1

[7] = system: splenic CD11c+ DCs; assay: In vivo activation of spleen dendritic cells with pathogen extract (STAg); parameters: species or system mouse; DC migration into T cell areas of the spleen: dose or concentration left out as unconfirmed; conditions: STAg challenge
Experimental: (§3) Experiments were performed essentially as in (19). STAg was prepared from sonicated T. gondii (RH strain) tachzoytes. For isolated DC experiments, 70-85% CD11c positive DCs were isolated from spleen. CD11c+DC suspensions (1.0×10^6 cells/ml) were spread into 96-well plates and incubated for 24 h with Resolvin E1 before the addition of STAg ([…]). After overnight culture, supernatants were collected and IL-12p40 was measured with a sandwich ELISA. For in vivo treatments, C57BL/6 mice (n=3 per group) were injected intravenously with 100 ng Resolvin E1. After 18 h the animals were challenged intraperitoneally with PBS (0.2 ml/mouse), STAg (5 mg/ml) and sacrificed after an additional 6 h. CD11c+DCs were isolated from spleen and IL12-p40 secretion was measured at 24 h. For DC migration, Splenic frozen section from mice treated as above but given […] of Resolvin E1 or vehicle were stained for CD11c and counterstained with hematoxylin.

[8] = target: T1, Reso ER1 (Homo sapiens, UniProt Q99788); assay: NF-kB reporter gene assay, HEK293 cells transfected with Reso ER1; assay type: cell-based; parameters: expressed in transfected cells; host or cells: HEK293, transient transfection with pcDNA3-Reso ER1
T1 sequence (Q99788 1-373): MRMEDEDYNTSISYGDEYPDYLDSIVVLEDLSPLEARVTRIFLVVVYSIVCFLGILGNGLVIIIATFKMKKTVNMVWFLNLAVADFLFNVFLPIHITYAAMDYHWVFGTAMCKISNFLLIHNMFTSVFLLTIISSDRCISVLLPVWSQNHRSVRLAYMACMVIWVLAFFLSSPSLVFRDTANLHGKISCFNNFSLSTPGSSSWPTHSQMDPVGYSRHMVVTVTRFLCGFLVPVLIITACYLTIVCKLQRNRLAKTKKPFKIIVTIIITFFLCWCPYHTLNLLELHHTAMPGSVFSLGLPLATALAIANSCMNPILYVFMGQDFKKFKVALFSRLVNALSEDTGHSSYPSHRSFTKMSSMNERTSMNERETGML
Experimental: HEK293 cells (1.0′10^5 cells) were transiently transfected with 50 ng pNF-kB-luciferase (Stratagene), 500 ng of either pcDNA3 or pcDNA3-GPCRs and the internal standard pRL-TK (Promega) using Superfect transfection reagent (Qiagen). After 24 h, cells were exposed to the test compounds for 30 min, stimulated with recombinant human TNF-a (1.0 ng/ml, BD Pharmingen) for 5 h. Luciferase activity was measured by the Dual-Luciferase reporter assay system (Promega). Basal induction of luciferase activity by TNF-a was >150-fold in this system. Efficient expression of GPCRs to the cell surface was observed by immunostaining using HA-tagged GPCR constructs. For PTX treatment, HEK293 cells were treated with PTX (200 ng/ml) for 24 h before stimulation.
as §2

[9] = system: mock-transfected HEK293 cells; assay: MAP kinase (ERK) activation in mock-transfected HEK293 cells; assay type: cell-based, human; conditions: 100 nM
Experimental: as §1

[10] = system: mouse splenic CD11c+ DCs; assay: IL-12p40 production by isolated splenic CD11c+ DCs stimulated with STAg; assay type: cell-based
Experimental: as §3
Chemically synthesized siRNA for mouse Reso ER1 (5′-[…]dTdT-3′) and Non-specific control IX siRNA (5′-[…]-3′) were from Dharmacon Research. Spleen cells (1.0×10^6 cells/ml) were transfected using Chariot (Active Motif) following manufacturers' instructions. Briefly, siRNA was mixed with Chariot transfection reagent and incubated at room temperature for 30 minutes. […]

[11] = system: leukocyte infiltration in TNF-a induced dorsal air pouch; assay: Murine dorsal air-pouch model (TNF-a induced leukocyte infiltration); assay type: in vivo, mouse; parameters: inhibition of leukocyte recruitment: dose or concentration left out as unconfirmed
Experimental: Dorsal air pouches were raised on male FvB mice (6-8 wk) by injecting 3 ml of sterile air subcutaneously on days 0 and 3. On day 6, 100 ng/mouse of compounds were injected into tail vein. Inflammation in the air-pouch was induced by intrapouch injection of mouse recombinant TNF-a (100 ng/pouch), and pouch lavages were collected at 4 h and cells were enumerated.

[12] = target: T1, Reso ER1; assay: [35S]-GTPgS binding assay, membranes expressing Reso ER1; assay type: biochemical; parameters: expressed in transfected cells; conditions: isolated membranes from cells expressing Reso ER1; concentration-dependent
Experimental: HEK293 cells stably expressing human Reso ER1 were homogenized in ice-cold TED buffer (20 mM Tris-HCl pH7.5/1 mM EDTA/5 mM MgCl2/1 mM DTT). Membrane fraction ([…]) was incubated in […] of GTP-binding buffer (50 mM Hepes, pH7.5/100 mM NaCl/1 mM EDTA/5 mM MgCl2/1 mM DTT) containing 0.1 nM [^35S]-GTPgS (>1000 Ci/mmol, Amersham) and […] for 30 min at 30° C. The bound and unbound [35S]-GTPgS was separated by rapid filtration through GF/C filters, and counted by liquid scintillation. Nonspecific binding was determined in the presence of […] unlabeled GTPgS. Basal [^35S]-GTP-gS binding was 81.6+1.5 cpm/mg protein.

[13] = system: HEK-Reso ER1 stable transformants; assay: Calcium mobilization in HEK-Reso ER1 stable transformants; assay type: cell-based, human
[14] = system: leukocyte infiltration in TNF-a induced dorsal air pouch; conditions: 1.0 mg/mouse, reference (9); cited from earlier work

Sequence of recombinant LTB4 receptor BLT 1 (Q15722 whole entry): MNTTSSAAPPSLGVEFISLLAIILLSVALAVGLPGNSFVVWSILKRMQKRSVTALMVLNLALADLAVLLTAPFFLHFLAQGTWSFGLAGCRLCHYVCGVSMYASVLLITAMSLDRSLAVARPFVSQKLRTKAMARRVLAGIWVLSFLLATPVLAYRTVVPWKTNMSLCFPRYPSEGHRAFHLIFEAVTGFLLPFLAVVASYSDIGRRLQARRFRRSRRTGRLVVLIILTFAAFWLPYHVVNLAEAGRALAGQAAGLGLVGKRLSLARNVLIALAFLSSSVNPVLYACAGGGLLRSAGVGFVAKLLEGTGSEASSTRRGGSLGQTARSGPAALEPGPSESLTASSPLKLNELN

For `CC[C@@H](O)/C=C/C=C\C[C@@H](O)/C=C/C=C/C=C\[C@@H](O)CCCC(=O)O` [Resolvin E1, 5S,12R,18R-trihydroxy-6Z,8E,10E,14Z,16E-eicosapentaenoic acid], the “concentration at which it interacts with recombinant BLT1” value [1] is listed as ~0.5 mM, the “inhibition of leukocyte recruitment” value [2] is listed as 50-60% and the concentration at 4 h [3] is listed as 0.1 to 0.4 ng/mL. The “inhibition of calcium mobilization by 100 nM LTB4” value ([4]; 100 nM, data not shown, cell type not restated) was “did not inhibit calcium mobilization”, the calcium mobilization ([4]; human peripheral blood monocytes) was “did not evoke a calcium mobilization” and the “phosphorylation of ERK MAP kinase” value ([5]; 100 nM, HEK293-Reso ER1 cells) was “increased phosphoryation”. The “Resolvin E1 dependent ERK activation after pertussis toxin” value ([5]; PTX 200 ng/ml 24 h, Resolvin E1 100 nM, 5 min) was “abolished”, the “phosphorylation of ERK MAP kinase” value [6] was “increased phosphoryation” and the “IL-12 production in vivo” value ([7]; 100 ng intravenously, IL-12p40 from splenic CD11c+ DCs) was “blocked IL-12 production”. For the same molecule, the “DC migration into T cell areas of the spleen” value ([7]; Resolvin E1, CD11c staining) was “blocked”, the EC50 ([8]; read-out: EC50, inhibition of TNF-a induced NF-kB activation) was ~1 nM and the “phosphorylation of ERK MAP kinase” value [9] was “not in mock-transfected HEK293 cells”. The “IL-12p40 production by STAg” value ([10]; isolated mouse splenic CD11c+ DCs, within the nanomolar range) was “markedly inhibited”, the “action in regulating IL-12 production from DCs after siRNA specific for mouse Reso ER1” value ([10]; spleen cells transfected with siRNA, STAg stimulation) was “eliminated” and the “inhibition of leukocyte infiltration” value ([11]; 100 ng/mouse, tail vein, TNF-a induced dorsal air pouch) was 50-70%. The “specific [35S]-GTPgS binding” value [12] was “increased selectively” and the calcium mobilization [13] was “did not evoke a calcium mobilization”.

With `CC[C@H](O)/C=C/C=C\C[C@@H](O)/C=C/C=C/C=C\[C@@H](O)CCCC(=O)O` (single isomer, unassigned) [18S isomer] the “activity compared with native Resolvin E1 containing 18R” value [2] was “essentially equivalent activity”.

In the case of `CCC(O)C=CC=CCC(O)C=CC=CC=CC(O)CCCC(=O)O` (single isomer, unassigned) [6-trans,14-trans isomer], the “reduced potency for reducing leukocyte infiltration” value ([2]; versus Resolvin E1) is reported as ~70%.

In the case of `CC(=O)Oc1ccccc1C(=O)O` [aspirin, reference compound], the inhibition at 1000 µM ([8]; HEK293, 1 mM, read-out: non-receptor dependent inhibition of NF-kB) is given as 26.2% and the “inhibition of leukocyte recruitment” value [14] is given as 70%.

With `COc1ccc2c(c1)c(CC(=O)O)c(C)n2C(=O)c1ccc(Cl)cc1` [indomethacin, reference compound] the “inhibition of leukocyte recruitment” value [2] was 25%.

With `C[C@@H]1C[C@H]2[C@@H]3CCC4=CC(=O)C=C[C@]4(C)[C@@]3(F)[C@@H](O)C[C@]2(C)[C@@]1(O)C(=O)CO` [dexamethasone, reference compound] the “inhibition of leukocyte recruitment” value ([11]; local administration, dorsal air pouch) was 60%.
